Assay results as given in PMC8476755 (Frontiers in Chemistry, 2021).
Residue numbers refer to the chain shown, from its start. Read-outs that look alike come from different tables or passages of the source.

Columns and labels:
Assay in all cases: [3H]GABA uptake assay, transient expression in tsA201 cells
Format in all cases: cell-based
BGT1 E52A = target: T1, BGT1 E52A (Homo sapiens, UniProt P48065, E52A); conditions: for Increase in activity compared to wildtype: BGT1 E52A vs BGT1 wt; for IC50: BGT1 E52A
T1 construct: expressed in transfected cells; host or cells: tsA201 (transformed HEK293), transient
T1 sequence (P48065 1-614 E52A): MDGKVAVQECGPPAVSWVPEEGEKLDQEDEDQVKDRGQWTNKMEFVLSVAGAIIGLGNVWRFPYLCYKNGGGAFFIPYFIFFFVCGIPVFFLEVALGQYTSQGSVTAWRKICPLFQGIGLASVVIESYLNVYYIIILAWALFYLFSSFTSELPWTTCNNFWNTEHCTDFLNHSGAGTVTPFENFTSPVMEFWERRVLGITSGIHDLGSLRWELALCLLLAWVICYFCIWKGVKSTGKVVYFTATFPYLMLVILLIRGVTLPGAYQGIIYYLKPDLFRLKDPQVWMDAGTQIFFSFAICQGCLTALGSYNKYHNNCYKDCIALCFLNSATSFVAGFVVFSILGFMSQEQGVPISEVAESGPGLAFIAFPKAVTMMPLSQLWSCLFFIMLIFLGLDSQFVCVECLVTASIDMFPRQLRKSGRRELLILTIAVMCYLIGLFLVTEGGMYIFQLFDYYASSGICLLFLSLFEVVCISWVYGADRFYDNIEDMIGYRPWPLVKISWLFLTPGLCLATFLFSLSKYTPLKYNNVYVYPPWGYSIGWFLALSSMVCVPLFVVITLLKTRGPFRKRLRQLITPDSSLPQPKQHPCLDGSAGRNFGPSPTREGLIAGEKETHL
Experimental: (§1) The residue Q299 in human BGT1 corresponds to leucine in all other GATs (human, rat, mouse), while E52 corresponds to tyrosine in GAT1 (human, rat, mouse) but is conserved among GAT2, GAT3 and BGT1 (human, rat, mouse) (Figure 6A) ([Kickinger et al., 2019]).
(§2) The tsA201 cell line (a transformed HEK293 cell line), the Flp-In CHO cell lines stably expressing human (h) GATs and the HEK293 cell line stably expressing human α1β2γ2 GABAA receptors have been described previously and were cultured accordingly ([Al-Khawaja et al., 2014]; [Falk-Petersen et al., 2020]). The tsA201 cell line used for transient expression of hGATs was transfected with DNA constructs (8 μg per 10 cm plate) using 40 μL PolyFect transfection reagent according to the manufacturer’s protocol (Qiagen).
(§3) Briefly, cells were seeded in white 96-well plates (White Opaque Tissue Culture (TC) plated 96-well Microplate) pre-coated with PDL. Medium was removed on the following day and cells washed with 100 µL/well assay buffer (HBSS supplemented with 20 mM HEPES, 1 mM CaCl2 and 1 mM MgCl2, pH 7.4). […] The cells were washed 3 times with 100 µL/well ice-cold assay buffer, 150 µL/well MicroScint™20 was subsequently added before the plate was shaken for at least 1 h. The plate was counted in a Packard TopCounter microplate scintillation counter (PerkinElmer) for 3 min per well. […] Data presented is the pooled data of at least three independent experiments with three technical replicates if not stated otherwise in figure legends. Concentration–response curves were fitted by non-linear regression to the sigmoidal concentration-response model with GraphPad Prism (version 9.0.0, GraphPad Software, San Diego, CA, United States) as described ([Lie et al., 2020]).

BGT1 E52A + Q299L = target: T2, BGT1 E52A + Q299L (Homo sapiens, UniProt P48065, E52A/Q299L); conditions: for IC50: BGT1 E52A + Q299L, tsA201 cells (2: only n = 2)
T2 construct: expressed in transfected cells; host or cells: tsA201 (transformed HEK293), transient
T2 sequence (P48065 1-614 E52A/Q299L): T1 sequence (P48065 1-614 E52A) with Q299L
Experimental: as §1, §2, §3

BGT1 E52Y = target: T3, BGT1 E52Y (Homo sapiens, UniProt P48065, E52Y); conditions: for IC50: BGT1 E52Y, tsA201 cells
T3 construct: expressed in transfected cells; host or cells: tsA201 (transformed HEK293), transient
T3 sequence (P48065 1-614 E52Y): T1 sequence (P48065 1-614 E52A) with A52Y
Experimental: as §1, §2, §3

| SMILES | Increase in activity compared to wildtype (BGT1 E52A) [times] | IC50 (BGT1 E52A; tsA201 cells) [µM] | IC50 (BGT1 E52A + Q299L; read-out: IC50) [µM] | IC50 (BGT1 E52A + Q299L; read-out: pIC50 ± S.E.M. (converted)) [µM] | IC50 (BGT1 E52Y) [µM] | IC50 (BGT1 E52A) [µM] | Decrease in inhibitory activity compared to wildtype (BGT1 E52A + Q299L; BGT1 Q299L + E52A vs BGT1 wt) [times] | Decrease in inhibitory activity compared to wildtype (BGT1 E52Y; BGT1 E52Y vs BGT1 wt) [times] |
| --- | --- | --- | --- | --- | --- | --- | --- | --- |
| CN[C@@]12CC[C@H](C(=O)O)[C@@H]1C2 [compound 2] | 82 | 0.12 | 44 | 31.6 | 20 |  |  |  |
| N[C@@]12CC[C@H](C(=O)O)[C@@H]1C2 [bicyclo-GABA, (1S,2S,5R)-5-aminobicyclo[3.1.0]hexane-2-carboxylic acid] | 38 | 0.04 | 41 |  | 11 | ~0.04 | 27 | 7 |
